Where “and” joins values, the source holds several entries; their conditions need not be identical. Equal entries are not always repeated.
Test system: 292921-168-R-J2-PDC KRAS tumor spheroid viability
Assay: Anticancer human tumor 292921-168-R-J2-PDC patient-derived pancreatic carcinoma cell line growth inhibition [KRAS2]
Details: spheroids with HUVEC and MSC; for viability, T/C: stronger effect = lower value
Summary of the method: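 Combination screen of spheroid viability in tumor-cell co-cultures with endothelial (HUVEC) and mesenchymal stem cell stroma. Each agent was tested in half-log dilutions, topping at clinical Cmax or at 10 microM without a known Cmax.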

[1] = curve of first compound, second compound 0.1 µM
[2] = curve of first compound, second compound 0.316 µM
[3] = curve of first compound, second compound 1 µM
[4] = curve of first compound, second compound 3.16 µM
[5] = curve of first compound, second compound 10 µM
[6] = second compound 0.1 µM, first compound 0.0316 µM
[7] = second compound 0.1 µM, first compound 0.1 µM
[8] = second compound 0.1 µM, first compound 0.316 µM
[9] = second compound 0.1 µM, first compound 1 µM
[10] = second compound 0.1 µM, first compound 3.16 µM
[11] = second compound 0.1 µM, first compound 10 µM
[12] = second compound 0.316 µM, first compound 0.0316 µM
[13] = second compound 0.316 µM, first compound 0.1 µM
[14] = second compound 0.316 µM, first compound 0.316 µM
[15] = second compound 0.316 µM, first compound 1 µM
[16] = second compound 0.316 µM, first compound 3.16 µM
[17] = second compound 0.316 µM, first compound 10 µM
[18] = second compound 1 µM, first compound 0.0316 µM
[19] = second compound 1 µM, first compound 0.1 µM
[20] = second compound 1 µM, first compound 0.316 µM
[21] = second compound 1 µM, first compound 1 µM
[22] = second compound 1 µM, first compound 3.16 µM
[23] = second compound 1 µM, first compound 10 µM
[24] = second compound 3.16 µM, first compound 0.0316 µM
[25] = second compound 3.16 µM, first compound 0.1 µM
[26] = second compound 3.16 µM, first compound 0.316 µM
[27] = second compound 3.16 µM, first compound 1 µM
[28] = second compound 3.16 µM, first compound 3.16 µM
[29] = second compound 3.16 µM, first compound 10 µM
[30] = second compound 10 µM, first compound 0.0316 µM
[31] = second compound 10 µM, first compound 0.1 µM
[32] = second compound 10 µM, first compound 0.316 µM
[33] = second compound 10 µM, first compound 1 µM
[34] = second compound 10 µM, first compound 3.16 µM
[35] = second compound 10 µM, first compound 10 µM
[36] = compound alone, run of 08/26/2021
[37] = compound alone, run of 09/02/2021
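Note: drug exposure lasted seven days after spheroids formed for three days.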
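Throughout, for viability, T/C: percent of DMSO vehicle control viability which is 100%.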

COC(=O)c1ccc2c(C(=Nc3ccc(N(C)C(=O)CN4CCN(C)CC4)cc3)c3ccccc3)c(O)[nH]c2c1 + COc1cc2nc(C)nc(NC(C)c3cc(N)cc(C(F)(F)F)c3)c2cc1OC1CCOC1 showed an IC50 [1] of 856 nM, an IC50 [2] of 620 nM and an IC50 [3] of 382 nM. It also gave an IC50 [4] of 221 nM, an IC50 [5] of 31.9 nM and a viability, T/C [6] of 115%. For the same molecule, the viability, T/C [7] was 103%, the viability, T/C [8] was 83% and the viability, T/C [9] was 49.4%. It also gave a viability, T/C [10] of 4.07%, a viability, T/C [11] of 0.28% and a viability, T/C [12] of 95.9%. For the same molecule, the viability, T/C [13] was 96.6%, the viability, T/C [14] was 62.1% and the viability, T/C [15] was 37.3%. For the same molecule, the viability, T/C [16] was 19.2%, the viability, T/C [17] was 0.44% and the viability, T/C [18] was 103%. It also gave a viability, T/C [19] of 97.5%, a viability, T/C [20] of 47% and a viability, T/C [21] of 29.5%. The viability, T/C [22] was 4.33%, the viability, T/C [23] was 0.36% and the viability, T/C [24] was 83.9%. The viability, T/C [25] was 61.1%, the viability, T/C [26] was 46.5% and the viability, T/C [27] was 25.1%. For the same molecule, the viability, T/C [28] was 6.39%, the viability, T/C [29] was 0.44% and the viability, T/C [30] was 49%. The viability, T/C [31] was 44.2%, the viability, T/C [32] was 22.8% and the viability, T/C [33] was 12.8%. For the same molecule, the viability, T/C [34] was 1.24% and the viability, T/C [35] was 0.24%.

For CNCc1ccccc1-c1csc(C(C)Nc2nc(C)nc3cc(OC)c(OC)cc23)c1 (centres undefined), the viability, T/C (compound 0.316 µM) was 88.7% [middle of 16 runs], the viability, T/C (compound 10 µM) was 0.15% [middle of 14 runs] and the IC50 [36] was 1.28 µM [middle of 5 runs]. The IC50 [37] was 1.34 µM [middle of 5 runs].

With COc1cc(Nc2ncc3c(n2)-c2ccc(Cl)cc2C(c2c(F)cccc2OC)=NC3)ccc1C(=O)O the viability, T/C (compound 0.0316 µM) was 30.3% [middle of 5 runs], the viability, T/C (compound 0.1 µM) was 28% [middle of 5 runs] and the viability, T/C (compound 0.316 µM) was 30.6% [middle of 5 runs]. For the same molecule, the viability, T/C (compound 1 µM) was 28.6% [middle of 5 runs], the viability, T/C (compound 3.16 µM) was 23.7% [middle of 5 runs] and the viability, T/C (compound 10 µM) was 17.8% [middle of 5 runs]. For the same molecule, the IC50 (curve of compound) was < 31.6 nM.

With COc1cc2nccc(Oc3ccc(NC(=O)C4(C(=O)Nc5ccc(F)cc5)CC4)cc3)c2cc1OC the viability, T/C (compound 0.0316 µM) was 104% (3×) and 112% and 103%, the viability, T/C (compound 0.1 µM) was 99.3% [middle of 5 runs] and the viability, T/C (compound 0.316 µM) was 96.6% [middle of 5 runs]. The viability, T/C (compound 3.16 µM) was 33.9% [middle of 5 runs], the viability, T/C (compound 10 µM) was 19.6% [middle of 5 runs] and the IC50 (curve of compound) was 2.1 µM [middle of 5 runs].

For Cn1ncnc1[C@H]1c2n[nH]c(=O)c3cc(F)cc(c23)N[C@@H]1c1ccc(F)cc1 + C=CC(=O)N1CCN(c2nc(OCC3CCCN3C)nc3c2CCN(c2cccc4cccc(C)c24)C3)CC1CC#N, the IC50 (curve of first compound, second compound 0.0316 µM) was > 100 nM, the IC50 [1] was > 100 nM and the IC50 [2] was 81.9 nM. The IC50 [3] was < 0.316 nM, the IC50 [4] was < 0.316 nM and the viability, T/C (second compound 0.0316 µM, first compound 0.000316 µM) was 99.5%. For the same molecule, the viability, T/C (second compound 0.0316 µM, first compound 0.001 µM) was 93%, the viability, T/C (second compound 0.0316 µM, first compound 0.00316 µM) was 93.2% and the viability, T/C (second compound 0.0316 µM, first compound 0.01 µM) was 93.6%. It also gave a viability, T/C (second compound 0.0316 µM, first compound 0.0316 µM) of 81.7%, a viability, T/C (second compound 0.0316 µM, first compound 0.1 µM) of 67.3% and a viability, T/C (second compound 0.1 µM, first compound 0.000316 µM) of 96.7%. It also gave a viability, T/C (second compound 0.1 µM, first compound 0.001 µM) of 93.5%, a viability, T/C (second compound 0.1 µM, first compound 0.00316 µM) of 91.7% and a viability, T/C (second compound 0.1 µM, first compound 0.01 µM) of 83.6%. It also gave a viability, T/C [6] of 77.6%, a viability, T/C [7] of 63.7% and a viability, T/C (second compound 0.316 µM, first compound 0.000316 µM) of 88.1%. For the same molecule, the viability, T/C (second compound 0.316 µM, first compound 0.001 µM) was 82.1%, the viability, T/C (second compound 0.316 µM, first compound 0.00316 µM) was 72.9% and the viability, T/C (second compound 0.316 µM, first compound 0.01 µM) was 74.9%. The viability, T/C [12] was 65%, the viability, T/C [13] was 46.4% and the viability, T/C (second compound 1 µM, first compound 0.000316 µM) was 42.1%. The viability, T/C (second compound 1 µM, first compound 0.001 µM) was 42.9%, the viability, T/C (second compound 1 µM, first compound 0.00316 µM) was 37.1% and the viability, T/C (second compound 1 µM, first compound 0.01 µM) was 32.5%. It also gave a viability, T/C [18] of 29.8%, a viability, T/C [19] of 28.3% and a viability, T/C (second compound 3.16 µM, first compound 0.000316 µM) of 0.3%. For the same molecule, the viability, T/C (second compound 3.16 µM, first compound 0.001 µM) was 0.12%, the viability, T/C (second compound 3.16 µM, first compound 0.00316 µM) was 0.12% and the viability, T/C (second compound 3.16 µM, first compound 0.01 µM) was 0.11%. The viability, T/C [24] was 0.13% and the viability, T/C [25] was 0.17%.

C=CC(=O)N1CCN(c2nc(OCC3CCCN3C)nc3c2CCN(c2cccc4cccc(C)c24)C3)CC1CC#N (centres undefined) was tested, and the IC50 [36] was 821 nM [middle of 5 runs] and the IC50 [37] was 647 nM [middle of 5 runs].

For CC1(C)CCC(CN2CCN(c3ccc(C(=O)NS(=O)(=O)c4ccc(NCC5CCOCC5)c([N+](=O)[O-])c4)c(Oc4cnc5[nH]ccc5c4)c3)CC2)=C(c2ccc(Cl)cc2)C1 + CC1OCC2(CCN(c3cnc(Sc4ccnc(N)c4Cl)c(N)n3)CC2)C1N, the IC50 [1] was 1610 nM, the IC50 [2] was 1430 nM and the IC50 [3] was < 31.6 nM. The IC50 [4] was < 31.6 nM, the IC50 [5] was < 31.6 nM and the viability, T/C [6] was 77.7%. For the same molecule, the viability, T/C [7] was 81.6%, the viability, T/C [8] was 71.8% and the viability, T/C [9] was 69.8%. It also gave a viability, T/C [10] of 21.9%, a viability, T/C [11] of 11.7% and a viability, T/C [12] of 59.7%. For the same molecule, the viability, T/C [13] was 65.9%, the viability, T/C [14] was 64.2% and the viability, T/C [15] was 58.9%. The viability, T/C [16] was 29.6%, the viability, T/C [17] was 7.43% and the viability, T/C [18] was 46.5%. For the same molecule, the viability, T/C [19] was 51.4%, the viability, T/C [20] was 46.1% and the viability, T/C [21] was 42.9%. It also gave a viability, T/C [22] of 17.8%, a viability, T/C [23] of 7.41% and a viability, T/C [24] of 38.8%. It also gave a viability, T/C [25] of 40.2%, a viability, T/C [26] of 37.6% and a viability, T/C [27] of 39%. It also gave a viability, T/C [28] of 14.1%, a viability, T/C [29] of 7.38% and a viability, T/C [30] of 33.3%. It also gave a viability, T/C [31] of 32.8%, a viability, T/C [32] of 33.2% and a viability, T/C [33] of 34.7%. The viability, T/C [34] was 13.1% and the viability, T/C [35] was 1.65%.

Source: PubChem BioAssay AID1963870 (Molecular Pharmacology Branch, DTP, NCI, 2024)
